PMC3162300 (Journal of Natural Products, 2011)
Marks after values point to notes of the source that are not given here.

What was measured:
[1] = DPPH free-radical-scavenging assay; settings: up to 100 μM
[2] = system: croton oil-induced ear dermatitis (ear tissue histology); test: Histological analysis of ear tissue after croton oil dermatitis
[3] = biological target: T1, 5-LO (Homo sapiens, UniProt P09917); assay type: cell-based; settings: read-out: inhibition of leukotriene formation
T1 sequence (P09917 1-674): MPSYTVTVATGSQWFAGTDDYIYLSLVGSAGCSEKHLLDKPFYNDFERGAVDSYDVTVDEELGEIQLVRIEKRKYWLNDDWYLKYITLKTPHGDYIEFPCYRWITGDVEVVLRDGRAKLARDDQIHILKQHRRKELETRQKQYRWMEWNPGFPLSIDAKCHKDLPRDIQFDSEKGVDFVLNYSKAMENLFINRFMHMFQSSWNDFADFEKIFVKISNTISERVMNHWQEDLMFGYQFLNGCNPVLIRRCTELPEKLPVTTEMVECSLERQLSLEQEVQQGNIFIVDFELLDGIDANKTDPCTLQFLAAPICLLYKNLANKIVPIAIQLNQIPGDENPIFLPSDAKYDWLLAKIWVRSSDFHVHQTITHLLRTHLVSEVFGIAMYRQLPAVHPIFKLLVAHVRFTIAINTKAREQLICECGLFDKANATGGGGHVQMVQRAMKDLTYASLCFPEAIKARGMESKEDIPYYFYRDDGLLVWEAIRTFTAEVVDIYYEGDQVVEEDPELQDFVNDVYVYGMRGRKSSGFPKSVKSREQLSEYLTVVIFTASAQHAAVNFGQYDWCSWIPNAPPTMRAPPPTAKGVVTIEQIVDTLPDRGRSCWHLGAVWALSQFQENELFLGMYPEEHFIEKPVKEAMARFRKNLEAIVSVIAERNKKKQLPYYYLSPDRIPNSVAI

[4] = system: croton oil-induced ear dermatitis (edema); test: Croton oil-induced mouse ear dermatitis: edematous response
[5] = biological target: T2, COX-2 (Ovis aries, UniProt P79208); test: COX-2 inhibition assay; assay type: biochemical, sheep; settings: read-out: inhibition of COX-2
T2 sequence (P79208 17-603): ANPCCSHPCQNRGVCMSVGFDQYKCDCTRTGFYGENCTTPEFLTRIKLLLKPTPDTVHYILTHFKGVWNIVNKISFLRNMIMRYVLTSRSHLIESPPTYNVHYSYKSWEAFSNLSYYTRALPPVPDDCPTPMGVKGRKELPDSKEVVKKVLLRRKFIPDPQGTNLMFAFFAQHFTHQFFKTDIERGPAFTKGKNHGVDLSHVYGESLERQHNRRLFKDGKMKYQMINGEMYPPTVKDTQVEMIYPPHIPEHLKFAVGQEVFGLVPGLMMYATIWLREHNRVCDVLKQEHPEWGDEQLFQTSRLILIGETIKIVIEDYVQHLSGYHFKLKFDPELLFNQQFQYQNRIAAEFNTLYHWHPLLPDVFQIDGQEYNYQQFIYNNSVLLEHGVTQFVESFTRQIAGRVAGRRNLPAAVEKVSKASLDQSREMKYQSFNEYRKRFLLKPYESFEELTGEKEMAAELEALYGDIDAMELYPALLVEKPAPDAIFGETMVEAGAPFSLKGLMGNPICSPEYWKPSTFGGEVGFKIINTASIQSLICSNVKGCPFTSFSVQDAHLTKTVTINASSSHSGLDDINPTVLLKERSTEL

[6] = biological target: T3, COX-1 (Ovis aries, UniProt P05979); test: COX-1 inhibition assay; assay type: biochemical, ram; settings: read-out: inhibition of COX-1
T3 sequence (P05979 25-600): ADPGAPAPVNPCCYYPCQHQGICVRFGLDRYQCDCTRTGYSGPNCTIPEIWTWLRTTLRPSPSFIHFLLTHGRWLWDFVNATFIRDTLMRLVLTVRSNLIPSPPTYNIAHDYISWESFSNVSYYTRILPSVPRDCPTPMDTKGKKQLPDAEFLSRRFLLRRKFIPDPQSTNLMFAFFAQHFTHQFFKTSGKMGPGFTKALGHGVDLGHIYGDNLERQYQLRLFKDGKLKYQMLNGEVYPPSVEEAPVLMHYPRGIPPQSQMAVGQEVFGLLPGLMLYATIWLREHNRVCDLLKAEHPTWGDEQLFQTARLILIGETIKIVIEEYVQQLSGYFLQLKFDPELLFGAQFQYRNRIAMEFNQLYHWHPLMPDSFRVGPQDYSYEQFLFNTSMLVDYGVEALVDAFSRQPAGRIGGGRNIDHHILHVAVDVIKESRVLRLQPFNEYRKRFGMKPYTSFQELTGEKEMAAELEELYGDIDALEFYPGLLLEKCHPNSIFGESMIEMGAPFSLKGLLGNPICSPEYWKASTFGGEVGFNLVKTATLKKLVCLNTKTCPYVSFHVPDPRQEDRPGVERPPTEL

[7] = biological target: T4, IKK2 (Homo sapiens, UniProt O14920); test: IKK2 enzymatic activity assay; assay type: biochemical; settings: 400 nM
T4 sequence (O14920 1-756): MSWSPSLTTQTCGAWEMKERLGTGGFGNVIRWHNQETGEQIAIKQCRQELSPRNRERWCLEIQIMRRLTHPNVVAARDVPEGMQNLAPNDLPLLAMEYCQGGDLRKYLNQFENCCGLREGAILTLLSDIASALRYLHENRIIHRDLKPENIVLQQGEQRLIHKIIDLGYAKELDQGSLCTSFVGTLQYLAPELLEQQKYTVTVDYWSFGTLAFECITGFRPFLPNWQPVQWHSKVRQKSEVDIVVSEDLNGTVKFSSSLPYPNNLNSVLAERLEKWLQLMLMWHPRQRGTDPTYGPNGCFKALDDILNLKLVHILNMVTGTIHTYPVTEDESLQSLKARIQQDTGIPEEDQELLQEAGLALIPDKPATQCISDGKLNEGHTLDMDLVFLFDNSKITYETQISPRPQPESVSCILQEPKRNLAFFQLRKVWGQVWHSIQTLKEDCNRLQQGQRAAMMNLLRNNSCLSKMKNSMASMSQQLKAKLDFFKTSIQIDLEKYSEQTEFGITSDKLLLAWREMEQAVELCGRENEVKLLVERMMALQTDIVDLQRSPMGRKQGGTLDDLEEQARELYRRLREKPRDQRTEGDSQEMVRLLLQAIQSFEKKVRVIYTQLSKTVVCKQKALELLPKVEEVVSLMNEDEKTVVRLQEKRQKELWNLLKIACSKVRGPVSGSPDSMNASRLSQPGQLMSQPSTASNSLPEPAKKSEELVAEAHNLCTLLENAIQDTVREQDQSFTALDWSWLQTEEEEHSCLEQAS

[8] = dose giving 50% inhibition of edema, 6 h, topical
[9] = topical dose 0.10 μmol/cm^2, 6 h
[10] = topical dose 0.30 μmol/cm^2, 6 h
[11] = topical dose 1.00 μmol/cm^2, 6 h

Row | Compound | effect in DPPH assay [1] | histological finding in ear tissue ([2]; 0.4 μmol/cm^2, 3-48 h) | inhibition at 50 µM [3] | ID50 (μg/cm^2) [4, 8] | edema (mg) mean ± SE [4, 9] | edema (mg) mean ± SE [4, 10] | edema (mg) mean ± SE [4, 11] | histological finding in ear tissue ([2]; 0.04 μmol/cm^2, 3-48 h) | edema (mg) mean ± SE ([4]; topical dose 0.01 μmol/cm^2, 6 h) | edema (mg) mean ± SE ([4]; topical dose 0.03 μmol/cm^2, 6 h) | inhibition at 50 µM [5] | inhibition at 50 µM [6] | effect on IKK2 enzymatic activity [7] | ID50 (μmol/cm^2) [4, 8]
1 | C/C=C/c1ccc2c(c1)[C@@H](C)[C@H](c1ccc(O)cc1)O2 [compound 7, (+)-conocarpan] | no effect | general reduction of these vascular and cellular changes due to inflammation | 80.2 to 94.6% | 82 μg/cm^2 | 5.2 ± 0.4 ^a mg | 3.8 ± 0.2 ^a mg | 1.3 ± 0.1 ^a mg | – | – | – | – | – | – | –
2 | COc1cc(O)ccc1-c1cc2cc(CCCO)ccc2o1 [compound 1, 5-(3-hydroxypropyl)-2-(2-methoxy-4-hydroxyphenyl)benzofuran] | – | – | 80.2 to 94.6% | 134 μg/cm^2 | 6.0 ± 0.3 ^a mg | 4.7 ± 0.3 ^a mg | 1.7 ± 0.1 ^a mg | – | – | – | – | – | – | –
3 | C[C@]12CCC(=O)C=C1CC[C@@H]1[C@@H]2[C@@H](O)C[C@@]2(C)[C@H]1CC[C@]2(O)C(=O)CO [hydrocortisone, reference compound] | – | – | – | 11 μg/cm^2 | 1.6 ± 0.2 ^a mg | – | – | attenuation of all the vascular and cellular signs of inflammation | 4.9 ± 0.3 ^a mg | 3.1 ± 0.3 ^a mg | – | – | – | –
4 | C/C=C/c1ccc2oc(-c3ccc(O)cc3)cc2c1 [compound 8, 2-(4-hydroxyphenyl)-5-(E)-propenylbenzofuran] | no effect | – | – | 110 μg/cm^2 | 5.9 ± 0.3 ^a mg | 4.5 ± 0.3 ^a mg | 1.8 ± 0.3 ^a mg | – | – | – | 57.2 to 83.3% | 57.2 to 83.3% | – | –
5 | C[C@@H]1[C@H](C)[C@@H](c2ccc(O)cc2)O[C@@H]1c1ccc(O)cc1 [compound 2, (−)-larreatricin] | – | – | – | 131 μg/cm^2 | 5.6 ± 0.3 ^a mg | 4.2 ± 0.4 ^a mg | 2.3 ± 0.2 ^a mg | – | – | – | – | – | – | –
6 | NC(=O)Nc1sc(-c2ccc(F)cc2)cc1C(N)=O [IKK2 inhibitor IV] | – | – | – | – | – | – | – | – | – | – | – | – | completely suppressed IKK2 enzymatic activity to the background level | –
7 | C/C=C/c1ccc2oc(-c3ccc(O)cc3O)cc2c1 [compound 6, 2-(2,4-dihydroxyphenyl)-5-(E)-propenylbenzofuran] | – | – | – | 160 μg/cm^2 | 5.9 ± 0.3 ^a mg | 4.9 ± 0.3 ^a mg | 2.5 ± 0.3 ^a mg | – | – | – | 57.2 to 83.3% | 57.2 to 83.3% | – | –
8 | C/C=C/c1ccc2c(c1)C(CO)[C@@H](c1ccc(O)cc1)O2 (stereo in doubt) [compound 4, (2S,3S)-2,3-dihydro-3-hydroxymethyl-2-(4-hydroxyphenyl)-5-(E)-propenylbenzofuran] | – | – | – | 118 μg/cm^2 | 5.7 ± 0.4 ^a mg | 4.4 ± 0.3 ^a mg | 1.7 ± 0.2 ^a mg | – | – | – | – | – | – | 0.42 μmol/cm^2
9 | C/C=C/c1ccc2oc(-c3ccc(OC)cc3O)cc2c1 [compound 10, rataniaphenol I] | – | – | – | 160 μg/cm^2 | 6.2 ± 0.3 mg | 4.6 ± 0.3 ^a mg | 2.5 ± 0.3 ^a mg | – | – | – | – | – | – | –
10 | COc1ccc(-c2cc3cc(CCCO)ccc3o2)c(O)c1 [compound 5, 2-(2-hydroxy-4-methoxyphenyl)-5-(3-hydroxypropyl)benzofuran] | – | general reduction of these vascular and cellular changes due to inflammation | 80.2 to 94.6% | 107 μg/cm^2 | 5.2 ± 0.3 ^a mg | 3.4 ± 0.2 ^a mg | 2.3 ± 0.2 ^a mg | – | – | – | – | – | – | –
11 | C/C=C/c1ccc2oc(-c3ccc(O)cc3)c(C)c2c1 [compound 11, rataniaphenol II] | no effect | – | – | 106 μg/cm^2 | 6.0 ± 0.4 mg | 4.0 ± 0.2 ^a mg | 1.7 ± 0.2 ^a mg | – | – | – | 57.2 to 83.3% | 57.2 to 83.3% | – | –
12 | C/C=C/c1ccc2oc(-c3ccc(O)cc3OC)cc2c1 [compound 9, rataniaphenol III] | – | – | – | 134 μg/cm^2 | 6.1 ± 0.2 mg | 4.4 ± 0.3 ^a mg | 2.1 ± 0.3 ^a mg | – | – | – | 57.2 to 83.3% | 57.2 to 83.3% | – | –
13 | COc1ccc2c(c1)c(CC(=O)O)c(C)n2C(=O)c1ccc(Cl)cc1 [indomethacin, reference compound] | – | reduced mast cell degranulation and leukocyte infiltration at all observation times | – | 104 μg/cm^2 | 5.2 ± 0.4 ^a mg | 3.4 ± 0.3 ^a mg | 1.4 ± 0.2 ^a mg | – | – | – | – | – | – | –
14 | C[C@@H]1[C@H](C)[C@@H](c2ccc(O)cc2)O[C@H]1c1ccc(O)cc1 [compound 3, meso-3,3′-didemethoxynectandrin B] | – | – | – | 102 μg/cm^2 | 5.9 ± 0.3 ^a mg | 3.3 ± 0.3 ^a mg | 1.9 ± 0.2 ^a mg | – | – | – | – | – | – | –
